Test results: patent US20240358659A1, “Uses of Propranolol for Managing Viral Infections” (Emory University, priority 2021, published 2024)

What was measured:
SARS-CoV-2 [1] = settings: incubation of SARS-CoV-2 with compound for 1 hr at 37° C., plaque assay
SARS-CoV-2 [2] = assay: viral load reduction assay in Vero E6 cells (RT-qPCR of released genome copies); format: cell-based
SARS-CoV-2 [3] = assay: viral load reduction assay in human lung epithelial (Calu) cells (RT-qPCR of released genome copies); format: cell-based; settings: MOI 1, 150 uM, 16 h pi
SARS-CoV-2 [4] = assay: time of addition assay in Vero cells, plaque assay; format: cell-based; settings: infectious particles by plaque assay at 16 h pi

CC(C)NC[C@@H](O)COc1cccc2ccccc12 [R-propranolol, (R)-(+)-1-(isopropylamino)-3-(naphthalen-1-yloxy)propan-2-ol]
reduction of infectivity of virus particles (virucidal activity) (SARS-CoV-2 [1]): does not reduce infectivity of virus particles | efficacy in viral load reduction compared with remdesivir (SARS-CoV-2 [2]; 25 uM): approximately the same efficacy as remdesivir | reduction in extracellular SARS-CoV-2 genome copies (SARS-CoV-2 [2]; MOI 1, 50 uM, 16 h post-infection): ~2.5 log | reduction in extracellular SARS-CoV-2 genome copies (SARS-CoV-2 [3]): about 1.5 log | reduction of viral load by time of addition (SARS-CoV-2 [4]): highest reduction of viral load upon pre-treatment
